Reference: patent publication US20240368104A1, “Novel Dialkoxynaphtho[2,3-C]Furan-1(3H)-One Derivatives and Pharmaceutical Composition For Preventing or Treating Respiratory Disease or SARS-COV-2 Infection Disease, Comprising Same” (priority 2021, published 2024)

Assays:
[1] = test system: SARS-COV-2; test: microbe, parasite or virus in culture; format: cell-based; design: SI (Selectivity Index, CC50/IC50): unit not given here; conditions: for SI (Selectivity Index, CC50/IC50): SARS-COV-2, values >50 assumed to be 50; for IC50: Severe acute respiratory syndrome coronavirus 2, Vero cells, 24 hours infection, read-out: SARS-COV-2 inhibition (IC50)
[2] = in vitro; conditions: African green monkey

Row | Structure (SMILES) | SI (Selectivity Index, CC50/IC50) [1] | IC50 [1] [µM] | CC50 [2] [µM]
1 | COc1cc2cc3c(c(-c4ccc5c(O)cc(C)nc5c4C)c2cc1OC)C(=O)OC3 [Example 146, 9-(4-hydroxy-2,8-dimethylquinolin-7-yl)-6,7-dimethoxynaphtho[2,3-c]furan-1(3H)-one] | 1.0 | > 50 | > 50
2 | COc1cc2cc3c(c(-c4ccc5nc(C)cc(O)c5c4)c2cc1OC)C(=O)OC3 [Example 147, 9-(4-hydroxy-2-methylquinolin-6-yl)-6,7-dimethoxynaphtho[2,3-c]furan-1(3H)-one] | 1.0 | > 50 | > 50
3 | COc1cc2cc3c(c(-c4ccnc5ccc(F)cc45)c2cc1OC)C(=O)OC3 [Example 148, 9-(6-fluoroquinolin-4-yl)-6,7-dimethoxynaphtho[2,3-c]furan-1(3H)-one] | 1.0 | > 50 | > 50
4 | COc1cc2cc3c(c(-c4cc(C)nc5c(OC)cccc45)c2cc1OC)C(=O)OC3 [Example 149, 6,7-dimethoxy-9-(8-methoxy-2-methylquinolin-4-yl)naphtho[2,3-c]furan-1(3H)-one] | 1.0 | > 50 | > 50
5 | COc1ccc2c(-c3c4c(cc5cc(OC)c(OC)cc35)COC4=O)ccnc2c1 [Example 150, 6,7-dimethoxy-9-(7-methoxyquinolin-4-yl)naphtho[2,3-c]furan-1(3H)-one] | 1.0 | > 50 | > 50
6 | COc1cc2cc3c(c(-c4cnc(N5CCc6ccccc6[C@@H]5c5ccccc5)nc4)c2cc1OC)C(=O)OC3 [Example 151, (S)-6,7-dimethoxy-9-(2-(1-phenyl-3,4-dihydroisoquinolin-2 (1H)-yl)pyrimidin-5-yl)naphtho[2,3-c]furan-1(3H)-one] | 1.0 | > 50 | > 50
7 | COc1cc2cc3c(c(-c4ccc5c(N6CCNCC6)ccnc5c4)c2cc1OC)C(=O)OC3 [Example 152, 6,7-dimethoxy-9-(4-(piperazin-1-yl)quinolin-7-yl)naphtho[2,3-c]furan-1(3H)-one] | 2.10 | 23.8 | > 50
8 | COc1cc2cc3c(c(-c4ccc5cc(C(F)(F)F)cc(O)c5c4)c2cc1OC)C(=O)OC3 [Example 153, 9-(8-hydroxy-6-(trifluoromethyl)naphthalen-2-yl)-6,7-dimethoxynaphtho[2,3-c]furan-1(3H)-one] | 1.0 | > 50 | > 50
9 | COc1cc2cc3c(c(-c4ccc5c(O)ccnc5c4C)c2cc1OC)C(=O)OC3 [Example 154, 9-(4-hydroxy-8-methylquinolin-7-yl)-6,7-dimethoxynaphtho[2,3-c]furan-1(3H)-one] | 1.0 | > 50 | > 50
10 | COc1ccc2nc(C)cc(-c3c4c(cc5cc(OC)c(OC)cc35)COC4=O)c2c1 [Example 155, 6,7-dimethoxy-9-(6-methoxy-2-methylquinolin-4-yl)naphtho[2,3-c]furan-1(3H)-one] | 1.0 | > 50 | > 50
11 | COc1cc2cc3c(c(-c4ccc(N5CCc6sccc6C5)nc4)c2cc1OC)C(=O)OC3 [Example 156, 9-(6-(6,7-dihydrothien[3,2-c]pyridin-5 (4H)-yl)pyridin-3-yl)-6,7-dimethoxynaphtho[2,3-c]furan-1(3H)-one] | 48.93 | 1.02 | > 50
12 | COc1cc2cc3c(c(-c4ccc(-c5c(OC)ncnc5OC)cc4)c2cc1OC)C(=O)OC3 [Example 157, 9-(4-(4,6-dimethoxypyrimidin-5-yl)phenyl)-6,7-dimethoxynaphtho[2,3-c]furan-1(3H)-one] | 1.0 | > 50 | > 50
13 | COc1cc2cc3c(c(-c4cnc(N(C)CCC5OCCO5)nc4)c2cc1OC)C(=O)OC3 [Example 158, 9-(2-((2-(1,3-dioxolan-2-yl)ethyl)(methyl)amino)pyrimidin-5-yl)-6,7-dimethoxynaphtho[2,3-c]furan-1(3H)-one] | 7.26 | 6.89 | > 50
14 | COc1cc2cc3c(c(-c4ccc(N5CCC(C)CC5)nc4)c2cc1OC)C(=O)OC3 [Example 159, 6,7-dimethoxy-9-(6-(4-methylpiperidin-1-yl)pyridin-3-yl)naphtho[2,3-c]furan-1(3H)-one] | 32.86 | 1.52 | > 50
15 | CCN(CC)c1ccc(-c2c3c(cc4cc(OC)c(OC)cc24)COC3=O)cn1 [Example 160, 9-(6-(diethylamino)pyridin-3-yl)-6,7-dimethoxynaphtho[2,3-c]furan-1(3H)-one] | 60.45 | 0.83 | > 50
16 | COc1cc2cc3c(c(-c4ccc(N(C)CCC5OCCO5)nc4)c2cc1OC)C(=O)OC3 [Example 161, 9-(6-((2-(1,3-dioxolan-2-yl)ethyl)(methyl)amino)pyridin-3-yl)-6,7-dimethoxynaphtho[2,3-c]furan-1(3H)-one] | 7.74 | 6.46 | > 50
17 | COc1cc2cc3c(c(-c4ccc(N(C)CC(OC)OC)nc4)c2cc1OC)C(=O)OC3 [Example 162, 9-(6-((2,2-dimethoxyethyl)(methyl)amino)pyridin-3-yl)-6,7-dimethoxynaphtho[2,3-c]furan-1(3H)-one] | 11.63 | 4.3 | > 50
18 | COc1cc2cc3c(c(-c4ccc(N(C)C)nc4)c2cc1OC)C(=O)OC3 [Example 163, 9-(6-(dimethylamino)pyridin-3-yl)-6,7-dimethoxynaphtho[2,3-c]furan-1(3H)-one] | 885.42 | 0.06 | > 50
19 | COc1cc2cc3c(c(-c4ccc(N(C)[C@H]5CCc6c(cccc6OC)C5)nc4)c2cc1OC)C(=O)OC3 [Example 164, (S)-6,7-dimethoxy-9-(6-((5-methoxy-1,2,3,4-tetrahydronaphthalen-2-yl)(methyl)amino)pyridin-3-yl)naphtho[2,3-c]furan-1(3H)-one] | 39.02 | 1.28 | > 50
20 | COc1cc2cc3c(c(-c4ccc(N5CCC(O)CC5)nc4)c2cc1OC)C(=O)OC3 [Example 165, 9-(6-(4-hydroxypiperidin-1-yl)pyridin-3-yl)-6,7-dimethoxynaphtho[2,3-c]furan-1(3H)-one] | 11.69 | 2.91 | 34
21 | COc1cc2cc3c(c(-c4ccc(N5CCC6(CC5)OCCO6)nc4)c2cc1OC)C(=O)OC3 [Example 166, 9-(6-(1,4-dioxa-8-azaspiro[4.5]decan-8-yl)pyridin-3-yl)-6,7-dimethoxynaphtho[2,3-c]furan-1(3H)-one] | 18.50 | 2.7 | > 50
22 | COc1cc2cc3c(c(-c4ccc(N5CCN(C)CC5)nc4)c2cc1OC)C(=O)OC3 [Example 167, 6,7-dimethoxy-9-(6-(4-methylpiperazin-1-yl)pyridin-3-yl)naphtho[2,3-c]furan-1(3H)-one] | 3.73 | 14.8 | > 50
